Test system: excised human nerve tissue
Assay: Phage display selection on excised human nerve tissue (Nerve2, Nerve3), NextGen sequence counts
Format: binding
Conditions: unique sequence count (relative enrichment)
Procedure: Several m13 phage libraries were constructed expressing randomized variants of a parent peptide (QVPWEEPYYVVKKS-SGGL; SEQ ID NO: 576). In particular, the first 14 amino acids of the parent peptide were randomized using degenerate oligonucleotide synthesis to obtain a diverse set of peptides with a mutation rate of about 50% per residue.
To accomplish this, synthesis was carried out by the XXK codon design approach, where X is any base and K is G or T. To bias synthesis towards the parent sequence, synthesis was carried out at each X position with a mixture of about 70%-85% of the parent nucleotide and 15-30% of the remaining 3 nucleotides. The resulting molecules were inserted into fADL-1e (Antibody Design Laboratories), which is a type 3 phage display vector having a cloning site on the N-terminal side of the full-length gene III protein. The fusion proteins are directed to the periplasm by the PelB leader peptide, which is inserted in the vector […].
Collectively, the phage display libraries used in the screens comprised about 600 million peptides, with sequencing analysis confirming a mutation rate of about 50% per residue.
Phage libraries were independently processed, as follows, with five biological samples: two independent samples of excised human nerve tissue, one sample of a human nerve extract, and two independent samples of human muscle tissue, as follows:
Excised Human Nerve Tissue: For each of the two independent samples, phage were processed through multiple cycles of selection, with representative phage being isolated and sequenced after each selection cycle. Specifically, for selection using human nerve tissue, a sample of […] tissue (2 mm by 2 mm) was washed prior to mixing and incubation with a phage library. After incubation, the mixture (containing mostly intact nerves with phage particles that had variable affinity for nerves) was centrifuged and the nerve pellet washed multiple times with PBS to remove phage with little or no affinity for nerve tissue. The pellet was homogenized and plated for titering and reamplification. Phage that were bound at each round were sequenced. NextGen sequencing of pools after 2, 3 and 4 rounds of selection were used to isolate candidate sequences that were further analyzed using bioinformatics.
NextGen sequencing of pools after 2, 3 and 4 rounds of selection were used to isolate candidate sequences from each of the five samples. These five data sets were then analyzed as described in the next section.
Peptide and vector sequences were translated starting at the first start codon in the nucleotide sequence. […] Trimmed peptides with identical sequences were combined and quantified according to their frequency (count).
Following processing, an R script was written to merge the unique peptide sequences (with counts 6 or greater) from the 5 different data sets to analyze the overlap between nerve and muscle binding activity.
For the single Nerve2, Nerve3, and Plated Nerve2 (pn2) subsets, the number of counts for each group was set at a threshold giving rise to at least 100 peptides. […] As highlighted in yellow in FIG. 1B, the representative group also included 6 unique peptides overlapping between nerve2 and nerve3, 200 unique peptides overlapping between nerve2 and plated nerve2 (at least 60 counts), 4 unique peptides overlapping between nerve3 and plated nerve2. Finally, as highlighted in green in FIG. 1B, the representative group also included […] common to the nerve2, nerve3, and plated nerve2 sets.

[1] = peptides overlapping between Nerve2 and Plated Nerve2

In the case of 200 (QCPLEESCFDGQKS) [compound 200], the Count [1] is reported as 69.

201 (QLTWPKQNYTMTQS) [compound 201] was tested, and the Count [1] was 69.

202 (QLPWGAPYYVVKNS) [compound 202] showed a Count [1] of 68.

203 (RLPSEEPYTVAKRP) [compound 203] was tested, and the Count [1] was 68.

Substance 204 (DFPWEQRSSTVKQY) [compound 204] has a Count [1] of 67.

205 (DHTRVHPYYDFEIP) [compound 205] showed a Count [1] of 67.

206 (HATLQEPYFVVNHY) [compound 206] was tested, and the Count [1] was 67.

207 (HDTWKGPYYPANKS) [compound 207] showed a Count [1] of 67.

Work on 208 (QLPSQEPYNVQRKS) [compound 208] yielded a Count [1] of 67.

209 (SVTRYDLSTDVTKS) [compound 209] was tested, and the Count [1] was 67.

Substance 210 (ESQWEQPSDVFKVV) [compound 210] has a Count [1] of 66.

Substance 211 (KLPLEEPFYIVTPS) [compound 211] has a Count [1] of 66.

In the case of 212 (QIRWEDASYVEKTS) [compound 212], the Count [1] is reported as 66.

213 (QVPWKGQYYVVASS) [compound 213] gave a Count [1] of 66.

214 (HGPTDGPYYVSKKS) [compound 214] was tested, and the Count [1] was 65.

In the case of 215 (HILRQEPYYVLTNY) [compound 215], the Count [1] is reported as 65.

With 216 (HSHGQELFYVVTNT) [compound 216] the Count [1] was 65.

For 217 (HVPWGEPEALVKKS) [compound 217], the Count [1] was 65.

Work on 218 (QPPREQPYHIMKNS) [compound 218] yielded a Count [1] of 65.

Work on 219 (QTSWAGPHDRVTKA) [compound 219] yielded a Count [1] of 65.

Work on 220 (QVPCEEPWCLVKVN) [compound 220] yielded a Count [1] of 65.

221 (QVPWQDPVYDVNNA) [compound 221] showed a Count [1] of 65.

With 222 (YVKTVNPDSVLKIS) [compound 222] the Count [1] was 65.

For 223 (HVHFTDPHYVMKKS) [compound 223], the Count [1] was 64.

Substance 224 (HVPLQGPYYVKQKP) [compound 224] has a Count [1] of 64.

225 (NVEWEIPYYFVKKF) [compound 225] gave a Count [1] of 64.

For 226 (QFAWVQPYYFAKKS) [compound 226], the Count [1] was 64.

For 227 (QHPVKERDEFWKES) [compound 227], the Count [1] was 64.

Work on 228 (QIPWGETTAGIKKL) [compound 228] yielded a Count [1] of 64.

229 (EFSREQPNDFLNKS) [compound 229] was tested, and the Count [1] was 63.

With 230 (HIPFAEHDGVVPIS) [compound 230] the Count [1] was 63.

In the case of 231 (HVTSHEARYLAQNS) [compound 231], the Count [1] is reported as 63.

232 (EFTWEGLSEGVNEP) [compound 232] showed a Count [1] of 62.

233 (HVSSEYPYYVVKHT) [compound 233] was tested, and the Count [1] was 62.

For 234 (HVPAEPLVYENQKS) [compound 234], the Count [1] was 61.

235 (LIVSQPSYLAVQYS) [compound 235] was tested, and the Count [1] was 61.

For 236 (QLPLAKPNSVVATS) [compound 236], the Count [1] was 61.

237 (RLAWEEPHYVVKKS) [compound 237] gave a Count [1] of 61.

Work on 238 (KFTTQDSYYFGTQT) [compound 238] yielded a Count [1] of 60.

239 (NVTSREPYHLLEKS) [compound 239] showed a Count [1] of 60.

For 240 (QLPFIGPYHVAKKS) [compound 240], the Count [1] was 60.

Work on 241 (HDASGVSYYDRRES) [compound 241] yielded a Count (Nerve2 only) of 21.

Substance 242 (HVGLPEPHHVMIHS) [compound 242] has a Count (Nerve2 only) of 20.

Substance 243 (EVPSLQPYHGGKKS) [compound 243] has a Count (Nerve2 only) of 19.

For 244 (QIPSQEPYHRFKES) [compound 244], the Count (Nerve2 only) was 19.

Substance 245 (QIPGEAPYSFGKKY) [compound 245] has a Count (Nerve2 only) of 18.

246 (QNPWHYPYSLVSTA) [compound 246] showed a Count (Nerve2 only) of 17.

In the case of 247 (DVPFRLWNFAVVDS) [compound 247], the Count (Nerve2 only) is reported as 15.

With 248 (HFAWVVPNDAVKAS) [compound 248] the Count (Nerve2 only) was 15.

249 (HFSWEERYRVVHKS) [compound 249] gave a Count (Nerve2 only) of 15.

250 (RVPSDEPYSFLRQS) [compound 250] gave a Count (Nerve2 only) of 15.

251 (TQRWAEPYHVFHKS) [compound 251] gave a Count (Nerve2 only) of 15.

252 (HVLRHEPYYVVAQA) [compound 252] was tested, and the Count (Nerve2 only) was 14.

For 253 (LLPSDEAHYIVKHS) [compound 253], the Count (Nerve2 only) was 14.

For 254 (NVLSEQPGYVMEYL) [compound 254], the Count (Nerve2 only) was 14.

255 (QLPWTNPFHVVNKY) [compound 255] gave a Count (Nerve2 only) of 14.

256 (QYSLDESPYGAKKS) [compound 256] gave a Count (Nerve2 only) of 14.

257 (YVPGAAPIGIVHKS) [compound 257] gave a Count (Nerve2 only) of 14.

Substance 258 (HFAWEEVFHVKKNF) [compound 258] has a Count (Nerve2 only) of 13.

Substance 259 (HSPSKESHYVLENM) [compound 259] has a Count (Nerve2 only) of 13.

260 (HVPFGGTYSVEGES) [compound 260] showed a Count (Nerve2 only) of 13.

In the case of 261 (HYRCVGSCYVVAKS) [compound 261], the Count (Nerve2 only) is reported as 13.

For 262 (LFRSQAQNVLVISH) [compound 262], the Count (Nerve2 only) was 13.

263 (QFPGSELTVSVIQV) [compound 263] showed a Count (Nerve2 only) of 13.

Substance 264 (QFSSQEAHYELNTP) [compound 264] has a Count (Nerve2 only) of 13.

Work on 265 (QSPWDEPYYGVLMA) [compound 265] yielded a Count (Nerve2 only) of 13.

266 (QSTPEERYHRVIQA) [compound 266] was tested, and the Count (Nerve2 only) was 13.

267 (QVPLGAPFYAVRKS) [compound 267] gave a Count (Nerve2 only) of 13.

For 268 (YERWEAPFYDVQKS) [compound 268], the Count (Nerve2 only) was 13.

Work on 269 (HVAWNEPHHVLLQI) [compound 269] yielded a Count (Nerve2 only) of 12.

270 (HVLWEDPYYVVRMP) [compound 270] showed a Count (Nerve2 only) of 12.

Work on 271 (HVQLREHYFVVYSS) [compound 271] yielded a Count (Nerve2 only) of 12.

Work on 272 (HVSSEAPYYVLNKS) [compound 272] yielded a Count (Nerve2 only) of 12.

273 (LFPLDETYYVAKVS) [compound 273] was tested, and the Count (Nerve2 only) was 12.

274 (QALLEEKYTALKKS) [compound 274] showed a Count (Nerve2 only) of 12.

275 (QFPWEQRNYDVKKY) [compound 275] was tested, and the Count (Nerve2 only) was 12.

276 (QIPLDARSYLLKRP) [compound 276] was tested, and the Count (Nerve2 only) was 12.

In the case of 277 (QIQREEPFYVLKLY) [compound 277], the Count (Nerve2 only) is reported as 12.

Work on 278 (QLPSKASNSVQQTF) [compound 278] yielded a Count (Nerve2 only) of 12.

279 (QLPWEKPYYDVEVT) [compound 279] gave a Count (Nerve2 only) of 12.

Substance 280 (QNPGKSPYYVVHKS) [compound 280] has a Count (Nerve2 only) of 12.

Substance 281 (QVWGEVPLSGAKRF) [compound 281] has a Count (Nerve2 only) of 12.

282 (RVPSAAAYYGAKIS) [compound 282] showed a Count (Nerve2 only) of 12.

For 283 (VFSSDSQYLFVPNF) [compound 283], the Count (Nerve2 only) was 12.

284 (DRPVEVPSDFVNNS) [compound 284] was tested, and the Count (Nerve2 only) was 11.

With 285 (DVLGIERYYAVKDP) [compound 285] the Count (Nerve2 only) was 11.

Work on 286 (HHPGVGPFHVVKRS) [compound 286] yielded a Count (Nerve2 only) of 11.

Work on 287 (HLSQYEPYDPVDKS) [compound 287] yielded a Count (Nerve2 only) of 11.

In the case of 288 (HVAWDGAYNLVQTT) [compound 288], the Count (Nerve2 only) is reported as 11.

With 289 (HVPGQDPYDVQATY) [compound 289] the Count (Nerve2 only) was 11.

With 290 (HVPLEGSYLDDINS) [compound 290] the Count (Nerve2 only) was 11.

291 (HVTLAEPHLLLGKS) [compound 291] showed a Count (Nerve2 only) of 11.

With 292 (KFSLVHPEYYGKET) [compound 292] the Count (Nerve2 only) was 11.

For 293 (NLPGVEQYNLPNSS) [compound 293], the Count (Nerve2 only) was 11.

In the case of 294 (NVPWQVPYSVLKMP) [compound 294], the Count (Nerve2 only) is reported as 11.

295 (QFAGEVPYYFATDL) [compound 295] showed a Count (Nerve2 only) of 11.

Work on 296 (QHPMDPTYHVVIKA) [compound 296] yielded a Count (Nerve2 only) of 11.

For 297 (QILSEEPYYRVDMP) [compound 297], the Count (Nerve2 only) was 11.

Substance 298 (QIPLAYSNYVVNKY) [compound 298] has a Count (Nerve2 only) of 11.

Work on 299 (QITFEVPCCLVRKG) [compound 299] yielded a Count (Nerve2 only) of 11.

With 300 (QLGLDKLNHLVKKS) [compound 300] the Count (Nerve2 only) was 11.

301 (QSSSVEPYYVLQNS) [compound 301] showed a Count (Nerve2 only) of 11.

Substance 302 (QVACEQPYYNVNCS) [compound 302] has a Count (Nerve2 only) of 11.

303 (RLPEAEPYYLMTQP) [compound 303] was tested, and the Count (Nerve2 only) was 11.

Source: US20240207422A1, “NERVE TARGETING PEPTIDE CONJUGATES AND METHODS OF USE” (Alume Biosciences, Inc., priority 2022, published 2024)
